Results on 1 compound are retold here after patent EP1808178A1, “Composition comprising Astragalus radix extracts for treating prostate cancer” (Golden Biotechnology Corp., priority 2005, dated 2007).

For the test, the system named is human prostate cancer cell lines- LNCaP cells. Nature of the test: In vitro mode adjunctive treatment activity assay with Taxol (MTT colorimetric cell survival). The note with it: PCF1 concentration 0.0 µL/mL, i.e. Taxol (2nM) alone. The class given is cell-based. The procedure: Utilize in vitro filter mode for human prostate cancer cell lines- LNCaP cells. Where human prostate cancer cell lines - LNCaP cells is being cultured in the culture medium which is supplemented by fetalbovine serum for 24 hours, and process cells by Taxol for 72 hours, and then change the culture medium so as to culture it in a new culture medium by adding assay sample for 72 hours, afterwards evaluate the cell survival rate by MIT colorimetric analysis method.
? The assay analysis of the compositions in accordance with the present invention in effect for suppressing the growth of human prostate cancer cells, wherein it is necessary to compute the cell survival rate for cells in each well of96-well microplate, afterwards evaluate the cancer cells survival rate by MIT colorimetric analysis method.
? MTT colorimetric analysis method: MTT is a kind of tertrazolium salt, with a full name of 3-[4, 5-Dimenthylthialzol-2-yl] 2, 5-diphenyltetrazoliumbromide, which is the yellow dye, capable to be absorbed by live cells and also be reduced to blue color formazan by succinate-tetrazoliumreductase in mitochondrion, which is commonly used for filtering the affection for matters to the growth and proliferation of cells.

For the compound `CC(=O)O[C@H]1C(=O)[C@@]2(C)[C@H]([C@H](OC(=O)c3ccccc3)[C@]3(O)C[C@H](OC(=O)[C@H](O)[C@@H](NC(=O)c4ccccc4)c4ccccc4)C(C)=C1C3(C)C)[C@]1(OC(C)=O)CO[C@@H]1C[C@@H]2O` [Taxol], the “Cell Survival Rate (%)” value was determined as 56.4%.
